Experimental data as given in patent publication US20040259875A1, “Amine derivatives” (priority 2001, published 2004).

SMILES | melting point
O=C(NCc1ccc(Br)cc1)Nc1cccc2ccc([O-])c(F)c12.[K+] | 185 °C
O=C(Nc1ccc2c(c1)C(=O)c1ccccc1-2)Nc1c(Cl)cc(Cl)c2ccc([O-])cc12.[K+] | 200 °C
O=C(Nc1cccc2c1C(=O)c1ccccc1-2)Nc1c(Cl)cc(Cl)c2ccc([O-])cc12.[K+] | 195 °C
Cc1cc(NC(=O)Nc2c(Cl)cc(Cl)c3ccc([O-])cc23)ccc1Cl.[K+] | 190 °C
O=C(Nc1ccc(N2CCOCC2)c(Cl)c1)Nc1c(Cl)cc(Cl)c2ccc([O-])cc12.[K+] | 188 °C
O=C(Nc1ccc(Cl)c(C(F)(F)F)c1)Nc1c(Cl)cc(Cl)c2ccc([O-])cc12.[K+] | 150 °C (dec.)
O=C(Nc1ccc(C(F)(F)F)cc1)Nc1c(Cl)cc(Cl)c2ccc([O-])cc12.[K+] | 179 °C (dec.)
COc1cccc(-c2cccc(NC(=O)Nc3c(Cl)cc(Cl)c4ccc([O-])cc34)c2)c1.[K+] | 206 °C (dec.)
O=C(Nc1cccc(-c2ccc(Cl)c(F)c2)c1)Nc1c(Cl)cc(Cl)c2ccc([O-])cc12.[K+] | 174 °C (dec.)
O=C(Nc1cccc(Cl)c1)Nc1c(Cl)cc(Cl)c2ccc(O)cc12 [Example 1-1, N-(3-Chlorophenyl)-N′-(2,4-dichloro-7-hydroxy-1-naphthyl)urea] | > 260 °C
O=C(Nc1cccc(Cl)c1)Nc1c(Cl)ccc2ccc(O)cc12 [Example 1-2] | 242 to 243 °C
O=C(Nc1cccc(Cl)c1)Nc1c(Br)cc(Br)c2ccc(O)cc12 [Example 1-3] | 242 to 243 °C
O=C(Nc1ccc(Cl)c(C(F)(F)F)c1)Nc1c(Br)cc(Br)c2ccc(O)cc12 [Example 1-4] | 242 to 243 °C
O=C(NCc1ccc(Br)cc1)Nc1c(Cl)ccc2ccc(O)cc12 [Example 1-6] | 226 to 229 °C
O=C(Nc1ccc(Cl)c(C(F)(F)F)c1)Nc1c(Cl)ccc2ccc(O)cc12 [Example 1-8] | 260 °C (dec.)
O=C(Nc1ccc(Cl)c(C(F)(F)F)c1)Nc1c(Cl)cc(Cl)c2ccc(O)cc12 [Example 1-9] | 255 °C (dec.)
COc1cccc(NC(=O)Nc2c(Cl)cc(Cl)c3ccc(O)cc23)c1 [Example 1-11] | 223 to 226 °C
CCOC(=O)c1cccc(NC(=O)Nc2c(Cl)cc(Cl)c3ccc(O)cc23)c1 [Example 1-12] | 234 to 236 °C
CCOC(=O)c1ccc(NC(=O)Nc2c(Cl)cc(Cl)c3ccc(O)cc23)cc1 [Example 1-13] | 258 to 260 °C
O=C(Nc1ccc2ccccc2c1)Nc1c(Cl)cc(Cl)c2ccc(O)cc12 [Example 1-14] | 263 to 265 °C
COc1ccccc1NC(=O)Nc1c(Br)cc(Br)c2ccc(O)cc12 [Example 1-15] | 228 to 230 °C
COc1cccc(NC(=O)Nc2c(Br)cc(Br)c3ccc(O)cc23)c1 [Example 1-16] | 213 to 216 °C
CCOC(=O)c1cccc(NC(=O)Nc2c(Br)cc(Br)c3ccc(O)cc23)c1 [Example 1-17] | 193 to 196 °C
O=C(Nc1ccc(Cl)cc1)Nc1c(Cl)cc(Cl)c2ccc(O)cc12 [Example 1-21] | 253 to 255 °C
O=C(Nc1ccc(C(F)(F)F)cc1)Nc1c(Cl)cc(Cl)c2ccc(O)cc12 [Example 1-23] | 268 to 271 °C

SMILES | melting point
O=C(Nc1ccc(F)cc1)Nc1c(Br)cc(Br)c2ccc(O)cc12 [Example 1-25] | 222 to 225 °C
O=C(Nc1ccc(Cl)cc1)Nc1c(Br)cc(Br)c2ccc(O)cc12 [Example 1-26] | 229 to 233 °C
O=C(Nc1cccc(C(F)(F)F)c1)Nc1c(Br)cc(Br)c2ccc(O)cc12 [Example 1-27] | 233 to 236 °C
O=C(NCc1cccc(F)c1)Nc1c(Cl)cc(Cl)c2ccc(O)cc12 [Example 1-30] | 225 to 228 °C
COc1ccc(CNC(=O)Nc2c(Cl)cc(Cl)c3ccc(O)cc23)cc1 [Example 1-31] | 223 to 226 °C
CN(C)c1ccc(NC(=O)Nc2c(Cl)cc(Cl)c3ccc(O)cc23)cc1 [Example 1-32] | 192 °C (dec.)
O=C(NCc1cccc(F)c1)Nc1c(Br)cc(Br)c2ccc(O)cc12 [Example 1-33] | 215 to 218 °C
O=C(Nc1ccc(Cl)c(C(F)(F)F)c1)Nc1cccc2ccc(O)c(F)c12 [Example 1-34] | 228 °C
CCN(CC)c1ccc(NC(=O)Nc2c(Cl)ccc3ccc(O)cc23)cc1 [Example 1-35] | 199.8 to 200.5 °C
O=C(Nc1cccc(Cl)c1Cl)Nc1c(Cl)cc(Cl)c2ccc(O)cc12 [Example 1-39] | 300 °C
O=C(Nc1cccc(F)c1)Nc1c(Cl)cc(Cl)c2ccc(O)cc12 [Example 1-40] | > 300 °C
O=C(Nc1cc(C(F)(F)F)ccc1Cl)Nc1c(Cl)cc(Cl)c2ccc(O)cc12 [Example 1-41] | > 300 °C
O=C(Nc1ccc2ccccc2c1)Nc1cccc2ccc(O)c(F)c12 [Example 1-53] | 189 °C
O=C(NCc1ccc(Br)cc1)Nc1cccc2ccc(O)cc12 [Example 1-71] | 210 °C
O=C(Nc1ccc(Cl)c(C(F)(F)F)c1)Nc1ccc(Br)c2ccc(O)cc12 [Example 1-72] | 211 °C
O=C(Nc1ccc(F)c(C(F)(F)F)c1)Nc1ccc(Br)c2ccc(O)cc12 [Example 1-73] | 215 °C
CNc1ccc2cccc(NC(=O)Nc3ccc(Cl)c(C(F)(F)F)c3)c2c1 [Example 1-74] | 218 to 219 °C
O=C(Nc1ccc(Cl)c(C(F)(F)F)c1)Nc1cccc2ccc(NCc3ccccc3)cc12 [Example 1-75] | 193 to 194 °C
Nc1ccc2cccc(NC(=O)Nc3ccc(Cl)c(C(F)(F)F)c3)c2c1 [Example 1-76, N-(7-amino-naphthalen-1-yl)-N′-(4-chloro-3-trifluoromethyl-phenyl)urea] | 232 to 234 °C
CNc1ccc2ccc(Cl)c(NC(=O)Nc3ccc(Cl)c(C(F)(F)F)c3)c2c1 [Example 1-77] | 258 to 259 °C
CN(C(=O)NCc1ccc(Br)cc1)c1cccc2ccc(O)cc12 [Example 1-78] | 194 °C
CN(C(=O)Nc1ccc2ccccc2c1)c1cccc2ccc(O)cc12 [Example 1-79] | 215 °C
Cc1ccc(NC(=O)Nc2ccc(Cl)c(C(F)(F)F)c2)c2cc(O)ccc12 [Example 1-80] | 237 to 238 °C
O=C(Nc1ccc(Cl)c(C(F)(F)F)c1)Nc1c(Cl)cc(CO)c2ccc(O)cc12 [Example 1-82] | 210 °C
Cc1cc(Cl)c(NC(=O)Nc2ccc(Cl)c(C(F)(F)F)c2)c2cc(O)ccc12 [Example 1-83] | 254 °C

SMILES | melting point
CC(C)c1ccc(NC(=O)Nc2cccc3cc(O)ccc23)cc1 [Example 1-139] | 207.5 °C
C=CCOc1ccc2cccc(NC(=O)Nc3ccc(Cl)c(C(F)(F)F)c3)c2c1 [Example 1-164] | 183 to 184 °C
O=C(Nc1ccc(Cl)c(C(F)(F)F)c1)Nc1cccc2ccc(OC(=O)c3ccccc3)cc12 [Example 1-165] | 220 to 222 °C
O=C(Nc1cccc(Cl)c1)Nc1cccc2ccc(OC(=O)c3ccccc3)cc12 [Example 1-166] | 214 to 215 °C
CC(=O)Oc1ccc2c(Cl)cc(Cl)c(NC(=O)Nc3cccc(-c4ccccc4Cl)c3)c2c1 [Example 3-1, 5,7-Dichloro-8-({[(2′-chloro-1,1′-biphenyl-3-yl)amino]carbonyl}amino)-2-naphthyl acetate] | 180 °C
CC(=O)Oc1ccc2c(Br)cc(Br)c(NC(=O)Nc3cccc(-c4ccccc4)c3)c2c1 [Example 3-2] | 235 °C (dec.)
CC(=O)Oc1ccc2c(Cl)cc(Cl)c(NC(=O)Nc3cccc(-c4ccc(C)c(Cl)c4)c3)c2c1 [Example 3-4] | 260 °C
CC(=O)Oc1ccc2c(Cl)cc(Cl)c(NC(=O)Nc3cccc(-c4ccc(Cl)c(F)c4)c3)c2c1 [Example 3-5] | 287 °C
CC(=O)Oc1ccc2c(Cl)cc(Cl)c(NC(=O)Nc3ccc4c(c3)C(=O)c3ccccc3-4)c2c1 [Example 3-10] | 213 °C (dec.)
CC(=O)Oc1ccc2c(Cl)cc(Cl)c(NC(=O)Nc3ccc(N4CCOCC4)c(Cl)c3)c2c1 [Example 3-13] | 206 °C
CC(=O)Oc1ccc2c(Cl)cc(Cl)c(NC(=O)Nc3ccc(F)c(F)c3)c2c1 [Example 3-14] | 226 °C (dec.)
CC(=O)Oc1ccc2c(Cl)cc(Cl)c(NC(=O)Nc3cnc4ccccc4c3)c2c1 [Example 3-16] | 205 °C (dec.)
CCCc1ccc(NC(=O)Nc2c(Cl)cc(Cl)c3ccc(O)cc23)cc1 [Example 4-1, N-(2,4-Dichloro-7-hydroxy-1-naphthyl)-N′-(4-propylphenyl)urea] | 241 °C
O=C(Nc1cccc(-c2ccccc2Cl)c1)Nc1c(Cl)cc(Cl)c2ccc(O)cc12 [Example 4-3] | 228 to 232 °C
O=C(Nc1ccc(Oc2ccc(Cl)cc2)cc1)Nc1c(Cl)cc(Cl)c2ccc(O)cc12 [Example 4-9] | 230 °C
CC(=O)c1ccc(-c2cccc(NC(=O)Nc3c(Cl)cc(Cl)c4ccc(O)cc34)c2)cc1 [Example 4-10] | 253 °C
O=C(Nc1cccc(-c2ccc(C(=O)O)cc2)c1)Nc1c(Cl)cc(Cl)c2ccc(O)cc12 [Example 4-11] | 247 °C (dec.)
Cc1ccc(NC(=O)Nc2c(Cl)cc(Cl)c3ccc(O)cc23)cc1C [Example 4-12] | 239 °C (dec.)
O=C(Nc1c(Cl)cc(Cl)c2ccc(O)cc12)NC1CCCc2ccccc21 (centres unmarked) [Example 4-13] | 238 °C (dec.)
O=C(Nc1ccc(Cc2ccccc2)cc1)Nc1c(Cl)cc(Cl)c2ccc(O)cc12 [Example 4-14] | 230 °C (dec.)
O=C(Nc1cccc(Oc2ccccc2)c1)Nc1c(Cl)cc(Cl)c2ccc(O)cc12 [Example 4-15] | 226 °C (dec.)
O=C(Nc1ccc(F)cc1Cl)Nc1c(Cl)cc(Cl)c2ccc(O)cc12 [Example 4-16] | 298 °C (dec.)
COc1cccc(-c2cccc(NC(=O)Nc3c(Cl)cc(Cl)c4ccc(O)cc34)c2)c1 [Example 4-17] | 246 °C (dec.)
Cc1ccc(-c2cccc(NC(=O)Nc3c(Cl)cc(Cl)c4ccc(O)cc34)c2)cc1Cl [Example 4-18] | 234 °C (dec.)
